Key:
Experiment in all cases: relative viability (nuclei count vs DMSO), 5 days (fraction); higher = more cells survive
[1] = system: NCI-H2087
Method in brief: (§1)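 The day after seeding in 1536-well plates, lung cancer cell lines were treated by pin tool with a single drug, or with a fixed anchor-drug dose together with five library-drug doses (not always all listed) in √10 steps. After 5 days, a combined fix-and-stain solution (final 0.05% Triton X-100, 1% formaldehyde, 1 ug/ml Hoechst) was added. Nuclei counted on 4× images gave relative viability as treated counts over vehicle counts, reported as the median of duplicate plates.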

[2] = system: LU99A
Method in brief: as §1

[3] = system: NCI-H1734
Method in brief: as §1

[4] = system: RERF-LC-KJ
Method in brief: as §1

[5] = system: NCI-H3122
Method in brief: as §1

[6] = system: CAL-12T
Method in brief: as §1

[7] = system: LOU-NH91
Method in brief: as §1

[8] = system: ChaGo-K-1
Method in brief: as §1

[9] = system: NCI-H2228
Method in brief: as §1

[10] = system: NCI-H2405
Method in brief: as §1

[11] = system: EPLC-272H
Method in brief: as §1

[12] = system: NCI-H1793
Method in brief: as §1

[13] = system: HCC-78
Method in brief: as §1

[14] = system: LC-2-ad
Method in brief: as §1

[15] = system: NCI-H1755
Method in brief: as §1

[16] = system: NCI-H1944
Method in brief: as §1

[17] = system: NCI-H460
Method in brief: as §1

[18] = system: UMC-11
Method in brief: as §1

[19] = system: HCC-366
Method in brief: as §1

[20] = system: NCI-H2170
Method in brief: as §1

[21] = system: PC-3 [JPC-3]
Method in brief: as §1

[22] = system: NCI-H1395
Method in brief: as §1

[23] = system: NCI-H1651
Method in brief: as §1

COc1cc(N2CCC(C(N)=O)CC2)ccc1Nc1nc(N)c(Cl)c(Nc2ccccc2S(=O)(=O)C(C)C)n1 [HG-5-88-01] + Nc1nc2[nH]cc(CCc3ccc(C(=O)N[C@@H](CCC(=O)O)C(=O)O)cc3)c2c(=O)[nH]1 [Pemetrexed] (partner 0.2 µM)
relative viability ([1]; first compound 0.04 µM): 0.664 | relative viability ([1]; first compound 0.1265 µM): 0.689 | relative viability ([1]; first compound 0.4 µM): 0.67 | relative viability ([1]; first compound 1.265 µM): 0.651 | relative viability ([1]; first compound 4 µM): 0.715 | relative viability ([2]; first compound 0.04 µM): 0.163 | relative viability ([2]; first compound 0.1265 µM): 0.211 | relative viability ([2]; first compound 0.4 µM): 0.165 | relative viability ([2]; first compound 1.265 µM): 0.193 | relative viability ([2]; first compound 4 µM): 0.168 | relative viability ([3]; first compound 0.04 µM): 0.398 | relative viability ([3]; first compound 0.1265 µM): 0.423 | relative viability ([3]; first compound 0.4 µM): 0.361 | relative viability ([3]; first compound 1.265 µM): 0.391 | relative viability ([3]; first compound 4 µM): 0.375 | relative viability ([4]; first compound 0.04 µM): 0.521 | relative viability ([4]; first compound 0.1265 µM): 0.509 | relative viability ([4]; first compound 0.4 µM): 0.448 | relative viability ([4]; first compound 1.265 µM): 0.446 | relative viability ([4]; first compound 4 µM): 0.239 | relative viability ([5]; first compound 0.04 µM): 0.171 | relative viability ([5]; first compound 0.1265 µM): 0.161 | relative viability ([5]; first compound 0.4 µM): 0.144 | relative viability ([5]; first compound 1.265 µM): 0.157 | relative viability ([5]; first compound 4 µM): 0.115 | relative viability ([6]; first compound 0.04 µM): 1.25 | relative viability ([6]; first compound 0.1265 µM): 1.14 | relative viability ([6]; first compound 0.4 µM): 1.24 | relative viability ([6]; first compound 1.265 µM): 0.995 | relative viability ([6]; first compound 4 µM): 0.754 | relative viability ([7]; first compound 0.04 µM): 0.38 | relative viability ([7]; first compound 0.1265 µM): 0.44 | relative viability ([7]; first compound 0.4 µM): 0.376 | relative viability ([7]; first compound 1.265 µM): 0.456 | relative viability ([7]; first compound 4 µM): 0.522 | relative viability ([8]; first compound 0.04 µM): 0.262 | relative viability ([8]; first compound 0.1265 µM): 0.271 | relative viability ([8]; first compound 0.4 µM): 0.24 | relative viability ([8]; first compound 1.265 µM): 0.266 | relative viability ([8]; first compound 4 µM): 0.258 | relative viability ([9]; first compound 0.04 µM): 0.372 | relative viability ([9]; first compound 0.1265 µM): 0.237 | relative viability ([9]; first compound 0.4 µM): 0.237 | relative viability ([9]; first compound 1.265 µM): 0.26 | relative viability ([9]; first compound 4 µM): 0.183 | relative viability ([10]; first compound 0.04 µM): 0.965 | relative viability ([10]; first compound 0.1265 µM): 1.16 | relative viability ([10]; first compound 0.4 µM): 0.973 | relative viability ([10]; first compound 1.265 µM): 0.852 | relative viability ([10]; first compound 4 µM): 0.954 | relative viability ([11]; first compound 0.04 µM): 0.341 | relative viability ([11]; first compound 0.1265 µM): 0.262 | relative viability ([11]; first compound 0.4 µM): 0.319 | relative viability ([11]; first compound 1.265 µM): 0.307 | relative viability ([11]; first compound 4 µM): 0.0795 | relative viability ([12]; first compound 0.04 µM): 0.829 | relative viability ([12]; first compound 0.1265 µM): 0.8 | relative viability ([12]; first compound 0.4 µM): 0.828 | relative viability ([12]; first compound 1.265 µM): 0.692 | relative viability ([12]; first compound 4 µM): 0.522 | relative viability ([13]; first compound 0.04 µM): 0.824 | relative viability ([13]; first compound 0.1265 µM): 0.814 | relative viability ([13]; first compound 0.4 µM): 0.884 | relative viability ([13]; first compound 1.265 µM): 0.849 | relative viability ([13]; first compound 4 µM): 0.795 | relative viability ([14]; first compound 0.04 µM): 0.257 | relative viability ([14]; first compound 0.1265 µM): 0.257 | relative viability ([14]; first compound 0.4 µM): 0.259 | relative viability ([14]; first compound 1.265 µM): 0.275 | relative viability ([14]; first compound 4 µM): 0.267 | relative viability ([15]; first compound 0.04 µM): 0.446 | relative viability ([15]; first compound 0.1265 µM): 0.54 | relative viability ([15]; first compound 0.4 µM): 0.407 | relative viability ([15]; first compound 1.265 µM): 0.43 | relative viability ([15]; first compound 4 µM): 0.447 | relative viability ([16]; first compound 0.04 µM): 0.642 | relative viability ([16]; first compound 0.1265 µM): 0.695 | relative viability ([16]; first compound 0.4 µM): 0.643 | relative viability ([16]; first compound 1.265 µM): 0.615 | relative viability ([16]; first compound 4 µM): 0.564 | relative viability ([17]; first compound 0.04 µM): 0.0629 | relative viability ([17]; first compound 0.1265 µM): 0.0611 | relative viability ([17]; first compound 0.4 µM): 0.054 | relative viability ([17]; first compound 1.265 µM): 0.0633 | relative viability ([17]; first compound 4 µM): 0.0701 | relative viability ([18]; first compound 0.04 µM): 0.797 | relative viability ([18]; first compound 0.1265 µM): 0.772 | relative viability ([18]; first compound 0.4 µM): 0.844 | relative viability ([18]; first compound 1.265 µM): 0.827 | relative viability ([18]; first compound 4 µM): 0.789 | relative viability ([19]; first compound 0.04 µM): 0.197 | relative viability ([19]; first compound 0.1265 µM): 0.146 | relative viability ([19]; first compound 0.4 µM): 0.113 | relative viability ([19]; first compound 1.265 µM): 0.237 | relative viability ([19]; first compound 4 µM): 0.287 | relative viability ([20]; first compound 0.04 µM): 0.286 | relative viability ([20]; first compound 0.1265 µM): 0.28 | relative viability ([20]; first compound 0.4 µM): 0.261 | relative viability ([20]; first compound 1.265 µM): 0.257 | relative viability ([20]; first compound 4 µM): 0.249 | relative viability ([21]; first compound 0.04 µM): 1.16 | relative viability ([21]; first compound 0.1265 µM): 1.1 | relative viability ([21]; first compound 0.4 µM): 0.935 | relative viability ([21]; first compound 1.265 µM): 0.913 | relative viability ([21]; first compound 4 µM): 0.348 | relative viability ([22]; first compound 0.04 µM): 0.825 | relative viability ([22]; first compound 0.1265 µM): 0.923 | relative viability ([22]; first compound 0.4 µM): 0.751 | relative viability ([22]; first compound 1.265 µM): 1.05 | relative viability ([22]; first compound 4 µM): 0.753 | relative viability ([23]; first compound 0.04 µM): 0.499 | relative viability ([23]; first compound 0.1265 µM): 0.586 | relative viability ([23]; first compound 0.4 µM): 0.622 | relative viability ([23]; first compound 1.265 µM): 0.538 | relative viability ([23]; first compound 4 µM): 0.614

From the supplement of paper PMC10307832
